Assay results: publication PMC10675597, “Design, Synthesis, and Antisickling Investigation of a Thiazolidine Prodrug of TD-7 That Prolongs the Duration of Action of Antisickling Aromatic Aldehyde” (Pharmaceutics, 2023)

What was measured:
[1] = target: T1, Hb in human normal whole blood (Homo sapiens, UniProt P69905); assay: In-vitro time-dependent Hb modification (Hb adduct formation), cation-exchange HPLC; type: cell-based; settings: 2 mM; for %Hb Modification (Hb Adduct): normal whole blood 30% hematocrit
T1 construct: normal whole blood (AA) was collected from adult donors; from tissue; host or cells: normal (AA) human whole blood from adult donors, 30% hematocrit
Protocol: Pro-7 and the control TD-7 were used to conduct time-dependent Hb modification (Hb adduct formation) studies using normal whole blood as previously reported. A 200 mM stock solution of each compound was made with DMSO. In a 96-well 1.2 mL polypropylene deep-well plate (Thermo Scientific, Hampshire, UK), 2.0 mM concentration of each compound was added to 600 μL of whole blood (30% hematocrit), which was then incubated at 37 °C for 24 h with shaking (at 140 rpm). A control sample was supplemented only with an equivalent volume of DMSO. At different time points (0–24 h), 50 μL aliquots of this mixture were withdrawn from each well using a multichannel pipette and added to respective tubes containing 50 μL of sodium cyanoborohydride (NaBH3CN) and sodium borohydride (NaBH4) mixture (1:1 v/v 50 mM stock) to terminate the Schiff-base reaction, fix the Schiff-base Hb adducts and reduce the free reactive aldehyde. After mixing, the tubes were stored immediately at −80 °C until ready for analysis using cation-exchange HPLC (Hitachi D-7000 Series, Hitachi Instruments, Inc. San Jose, CA, USA) for Hb-compound adduct formation. The observed Hb adducts in %Hb modification were plotted as a function of time (h).
(§1) Human normal whole blood was used to assess the degree of Hb modification and Hb oxygen affinity (P50 shift), while sickle blood was used to investigate RBC sickling inhibition. Pro-7 and the positive control TD-7 were incubated with normal whole blood suspensions. […] For the sickling inhibition study, Pro-7 and the positive control TD-7 were incubated with SS blood suspensions under hypoxic conditions (2.5% O2/97.5% N2), and aliquot blood samples were drawn at three time points (1, 3 and 6 h) and used for assessing RBC morphology. The results summarized in Table 1 and Figure 4A–C show time-dependent effects for all three pharmacodynamic activities. […] Even at the end of the 24-h experiment, Pro-7 activity was still increasing.

[2] = tested on: SS cells (homozygous sickle cell blood); assay: In-vitro time-dependent RBC sickling inhibition under hypoxia; type: cell-based, human; settings: 2 mM; for inhibition at 2000 µM: Homo sapiens, SS cells 20% hematocrit, hypoxia (4% oxygen/96% nitrogen)
Protocol: Red blood cell sickling inhibition studies with Pro-7 and the control TD-7 was conducted using previously reported procedure. Blood suspensions from subjects with homozygous SCD (hematocrit 20%) were incubated under air in the absence or presence of test compounds at 37 °C for 1 h to ensure that binding has attained equilibrium. […] Aliquot samples were fixed with 2% glutaraldehyde solution without exposure to air, and then subjected to microscopic morphological analysis.
Human normal whole blood was used to assess the degree of Hb modification and Hb oxygen affinity (P50 shift), while sickle blood was used to investigate RBC sickling inhibition. […] The results summarized in Table 1 and Figure 4A–C show time-dependent effects for all three pharmacodynamic activities. […] Even at the end of the 24-h experiment, Pro-7 activity was still increasing.

[3] = In-vitro stability in different pH buffers (aldehyde peak absorbance at 349 nm); type: physicochemical; settings: for Stability (absorbance of aldehyde peak at 349 nm): 1 mM, 37 °C
Protocol: The stability of Pro-7 and the control TD-7 in different pH buffers (PBS buffer at pH 7.4, KCl·HCl buffer at pH 2.0, and Tris buffer at pH 8.0) was evaluated over time as previously reported. The ionic strength of all buffers was kept constant at 150 mM. A 200 mM stock solution of each compound was prepared using anhydrous DMSO. 1 mM solutions of each of the test compounds TD-7 and Pro-7 were prepared in duplicate for each of the three different pH buffers. […]
An in-vitro time-dependent (1–96 h) stability study of Pro-7 was conducted to inform the formulation of the prodrug. The study was conducted at three different pHs: 2.0, 7.4 and 8.0, which mimic stomach, blood and intestinal pH conditions, respectively. The presence of TD-7 or the rate of appearance of TD-7 upon dissociation of Pro-7 was monitored at 349 nm spectrophotometrically.

[4] = target: T1, Hb in human normal whole blood; assay: In-vitro time-dependent oxygen equilibrium study (P50 shift); type: cell-based; settings: 2 mM; for %Hb O2 Affinity (P50 Shift): normal whole blood 30% hematocrit
Protocol: An oxygen equilibrium curve study was conducted in a time-dependent manner to determine the effect and duration of Pro-7 on Hb affinity for oxygen (P50 shift) following standard procedure. Pro-7, along with the controls TD-7 and DMSO were used for the studies with normal whole blood sample (30% hematocrit). Each compound was incubated with the blood at a final concentration of 2 mM, and aliquot samples were taken at 1, 3, 6, 12 and 24 h and further incubated in IL 237 tonometer (Instrumentation Laboratories, Inc., Lexington, MA, USA) for 10 min at 37 °C, and allowed to equilibrate at oxygen tensions 6, 20, and 40 mmHg. The samples were then aspirated into a Radiometer ABL 800 Automated Blood Gas Analyzer (Copenhagen, Denmark ) to determine the pH, partial pressure of CO2 (pCO2), partial pressure of oxygen (pO2), and Hb oxygen saturation values (SO2). The measured values of pO2 (mmHg) and SO2 at each pO2 value were then subjected to a non-linear regression analysis using the program Scientist (Micromath, Salt Lake City, UT, USA) to estimate P50 as a measure of Hb oxygen affinity as previously reported.
as §1

T1 sequence (P69905 2-142 limits assumed): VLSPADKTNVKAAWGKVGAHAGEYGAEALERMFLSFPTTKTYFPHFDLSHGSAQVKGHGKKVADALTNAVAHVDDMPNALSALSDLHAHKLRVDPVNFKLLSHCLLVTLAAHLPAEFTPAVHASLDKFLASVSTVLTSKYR
T1 sequence (P68871 2-147 partner limits assumed): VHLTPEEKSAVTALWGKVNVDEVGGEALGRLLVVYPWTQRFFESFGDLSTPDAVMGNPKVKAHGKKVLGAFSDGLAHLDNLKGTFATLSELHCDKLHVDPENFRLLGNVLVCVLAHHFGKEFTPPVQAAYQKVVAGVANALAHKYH

COc1ccc(OCc2cccc(CO)n2)c(C=O)c1 [TD-7, 2-((6-(hydroxymethyl)pyridin-2-yl)methoxy)-5-methoxybenzaldehyde]
%Hb Modification (Hb Adduct) ([1]; 0 h): 0.00 ± 0.00% | time of peak effect, Hb modification ([1]; normal whole blood): 12 h | %Hb Modification (Hb Adduct) ([1]; 1 h): 25.20 ± 1.20% | %Hb Modification (Hb Adduct) ([1]; 2 h): 23.40 ± 3.50% | %Hb Modification (Hb Adduct) ([1]; 4 h): 41.70 ± 4.30% | %Hb Modification (Hb Adduct) ([1]; 8 h): 47.30 ± 4.70% | %Hb Modification (Hb Adduct) ([1]; 12 h): 48.30 ± 0.50% | %Hb Modification (Hb Adduct) ([1]; 24 h): 43.30 ± 1.90% | time of peak effect, RBC sickling inhibition ([2]; SS blood, hypoxia): peaked quickly at the first hour | inhibition at 2000 µM ([2]; 1 h): 76.3% | inhibition at 2000 µM ([2]; 3 h): 59.6% | inhibition at 2000 µM ([2]; 6 h): 54% | Stability (absorbance of aldehyde peak at 349 nm) ([3]; pH 2.0, 0 hr): 3.23 ± 0.08 | stability in buffer (in words) ([3]; pH 2.0, 7.4 and 8.0, 96 h experiment): showed stability at all three pHs | Stability (absorbance of aldehyde peak at 349 nm) ([3]; pH 2.0, 1 hr): 3.02 ± 0.00 | Stability (absorbance of aldehyde peak at 349 nm) ([3]; pH 2.0, 2 hr): 3.03 ± 0.04 | Stability (absorbance of aldehyde peak at 349 nm) ([3]; pH 2.0, 3 hr): 2.97 ± 0.04 | Stability (absorbance of aldehyde peak at 349 nm) ([3]; pH 2.0, 6 hr): 2.98 ± 0.01 | Stability (absorbance of aldehyde peak at 349 nm) ([3]; pH 2.0, 24 hr): 2.93 ± 0.01 | Stability (absorbance of aldehyde peak at 349 nm) ([3]; pH 7.4, 0 hr): 3.05 ± 0.10 | Stability (absorbance of aldehyde peak at 349 nm) ([3]; pH 7.4, 1 hr): 2.97 ± 0.01 | Stability (absorbance of aldehyde peak at 349 nm) ([3]; pH 7.4, 2 hr): 2.95 ± 0.03 | Stability (absorbance of aldehyde peak at 349 nm) ([3]; pH 7.4, 3 hr): 3.09 ± 0.06 | Stability (absorbance of aldehyde peak at 349 nm) ([3]; pH 7.4, 6 hr): 2.92 ± 0.02 | Stability (absorbance of aldehyde peak at 349 nm) ([3]; pH 7.4, 24 hr): 2.98 ± 0.07 | Stability (absorbance of aldehyde peak at 349 nm) ([3]; pH 7.4, 28 hr): 2.90 ± 0.04 | Stability (absorbance of aldehyde peak at 349 nm) ([3]; pH 7.4, 48 hr): 3.00 ± 0.05 | Stability (absorbance of aldehyde peak at 349 nm) ([3]; pH 7.4, 56 hr): 2.98 ± 0.08 | Stability (absorbance of aldehyde peak at 349 nm) ([3]; pH 7.4, 72 hr): 2.92 ± 0.05 | Stability (absorbance of aldehyde peak at 349 nm) ([3]; pH 7.4, 96 hr): 2.95 ± 0.03 | Stability (absorbance of aldehyde peak at 349 nm) ([3]; pH 8.0, 0 hr): 1.82 ± 0.05 | Stability (absorbance of aldehyde peak at 349 nm) ([3]; pH 8.0, 1 hr): 1.79 ± 0.00 | Stability (absorbance of aldehyde peak at 349 nm) ([3]; pH 8.0, 2 hr): 1.73 ± 0.01 | Stability (absorbance of aldehyde peak at 349 nm) ([3]; pH 8.0, 3 hr): 1.73 ± 0.01 | Stability (absorbance of aldehyde peak at 349 nm) ([3]; pH 8.0, 6 hr): 1.71 ± 0.01 | Stability (absorbance of aldehyde peak at 349 nm) ([3]; pH 8.0, 24 hr): 1.73 ± 0.02 | Stability (absorbance of aldehyde peak at 349 nm) ([3]; pH 8.0, 28 hr): 1.70 ± 0.02 | Stability (absorbance of aldehyde peak at 349 nm) ([3]; pH 8.0, 48 hr): 1.68 ± 0.03 | Stability (absorbance of aldehyde peak at 349 nm) ([3]; pH 8.0, 72 hr): 1.73 ± 0.03 | Stability (absorbance of aldehyde peak at 349 nm) ([3]; pH 8.0, 96 hr): 1.68 ± 0.04 | time of peak effect, Hb oxygen affinity ([4]; normal whole blood): peaked quickly at the first hour | %Hb O2 Affinity (P50 Shift) ([4]; 1 h): 69.26% | %Hb O2 Affinity (P50 Shift) ([4]; 3 h): 67.42% | %Hb O2 Affinity (P50 Shift) ([4]; 6 h): 49.06% | %Hb O2 Affinity (P50 Shift) ([4]; 12 h): 49.58% | %Hb O2 Affinity (P50 Shift) ([4]; 24 h): 48.56%
